One series has as its target T1, Aβ1-42 aggregates (Homo sapiens, UniProt P05067).
T1 construct: Preparing receptor Aβ1-42 proteins according to the existing method
Put plainly: In-vitro competitive binding experiment (Ki determination) with Aβ1-42 aggregates. Here is the method: 4, the compounds are separated after balancing, and the inhibition constant (Ki) is calculated by determining radioactivity.
• (1) Preparing 41 of PBS (0.2M) buffer solution with pH=7.4; • (2) Preparing radioligand [^125I]

A short description of the next series: logD of labeled ligands. In kind it is physicochemical.

We go through 8 molecules from patent EP3581565A1, “PHENYL BENZYL ETHER DERIVATIVE AND PREPARATION METHOD AND APPLICATION THEREOF” (Beijing Zhibo Bio-Medical Technology Co., Ltd., priority 2018, dated 2019).

Molecules are shown by their SMILES.

T1 sequence (P05067 672-713 limits assumed): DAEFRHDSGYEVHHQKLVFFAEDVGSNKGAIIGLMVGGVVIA

By Ki is commonly meant a dissociation constant, usually derived from enzyme kinetics or from competition with a known ligand. A low value points to a stronger hold on the target. `Clc1ccc(OCc2ccc(I)cc2)cn1` [Compound 55, 2-chloro-5-((4-iodobenzyl)oxy) pyridine] displayed a Ki at Aβ1-42 aggregates of 880 ± 72.4 nM.
On the same count and under the same terms, with `Brc1ccc(OCc2ccc(I)cc2)cn1` [Compound 57, 2-bromo-5-((4-iodobenzyl)oxy) pyridine] the figure was 163 ± 23 nM.
Take `COc1ccc(OCc2ccc(OCC[18F])cc2)cc1` [[^18F]44a]: the logD result in “logD of labeled ligands” was “[^18F]44a(logD = 3.05 ± 0.08)”.
Take `COc1ccc(COc2ccc(OCC[18F])cc2)cc1` [[^18F] 53a]: the logD result in the series “logD of labeled ligands” is “[^18F] 53a (logD= 3.65 ±0.04)”.
In the case of `COc1ccc(OCc2ccc([125I])cc2)cc1` [[^125I]4], the logD entry in “logD of labeled ligands” is “[^125I]4 (logD = 4.00± 0.08)”.
On the same count and under the same terms, in the case of `CN(C)c1ccc(OCc2ccc([125I])cc2)cc1` [[^125I]22] it was “[^125I]22(logD = 2.89± 0.09)”; in that of `COc1ccc(COc2ccc([125I])cc2)cc1` [[^125I]24], “[^125I]24 (logD = 4.16± 0.29)”; in that of `FCCOc1ccc(OCc2ccc([125I])cc2)cc1` [[^125I]31a], “[^125I]31a(logD = 3.96± 0.22)”.
